Experimental data from patent US9174960B2, “Compounds useful against kinetoplastideae parasites” (CENTRE NATIONAL DE LA RECHERCHE SCIENTIFIQUE, priority 2009, dated 2015).
Where a name gives a salt, the structure may show the parent alone. Read-outs that look alike come from different tables or passages of the source. Values belong to the compound of their own block, whether it stands above or below them.

Assays:
MRC-5SV2 cells = assay: Cytotoxicity against human cell lines (resazurin); details: human lung fibroblasts MRC-5
[1] = test system: Trypanosoma brucei brucei Squib 427 strain (suramin-sensitive); assay: In vitro Trypanosoma brucei brucei growth assay (resazurin); format: cell-based
Protocol: The strain is maintained in Hirumi (HMI-9) medium, supplemented with 10% FCSi. […] After 3 d incubation, parasite growth is assessed fluorimetrically after addition of resazurin. After 24 h at 37° C., fluorescence is measured (λex 550 nm, λem 590 nm).

[2] = test system: Primary peritoneal mouse macrophages; assay: Toxicity against mouse macrophages (host cells of the L. infantum assay); format: cell-based; details: mouse macrophages (L. inf)
Protocol: (§1) The Leishmania infantum MHOM/MA (BE)/67 strain is used. The strain is maintained in the Golden Hamster and spleen amastigotes are collected for preparing infection inocula. Primary peritoneal mouse macrophages are used as host cell and are collected 2 d after peritoneal stimulation with a 2% potato starch suspension. […] After 5 d incubation, parasite burdens (mean number of amastigotes/macrophage) are microscopically assessed after Giemsa staining.

[3] = test system: Trypanosoma cruzi, Tulahuen CL, β galactosidase strain (nifurtimox-sensitive); assay: In vitro Trypanosoma cruzi assay on MRC-5 cells (CPRG); format: cell-based; details: for trypanocidal activity against T. cruzi (in words): in vitro
Protocol: Trypanosoma cruzi, Tulahuen CL, β galactosidase strain (nifurtimox-sensitive) is used. The strain is maintained on MRC-5SV2 (human lung fibroblast) cells in MEM medium, supplemented with […] L-glutamine, 16.5 mM NaHCO3, and 5% FCSi. All cultures and assays are conducted at 37° C. under an atmosphere of 5% CO2. Assays are performed in sterile 96-well microtiter plates, each well containing 10 μl of the watery compound dilutions together with 190 μl of MRC-5 cell/parasite inoculum (2·10^4 cells/ml±2·10^5 parasites/ml). Parasite growth is compared to untreated-infected controls (100% growth) and non-infected controls (0% growth) after 7 d incubation. Parasite burdens are assessed after adding the substrate CPRG (chlorophenolred β-D-galactopyranoside): 50 μl/well of a stock solution containing 15.2 mg CPRG+250 μl Nonidet in 100 ml PBS. The change in color is measured spectrophotometrically at 540 nm after 4 h incubation at 37° C.

[4] = test system: human African trypanosomiasis (HAT); details: cited from earlier work
[5] = Stability of the compound (HPLC analysis, light); format: physicochemical
[6] = test system: Trypanosoma brucei brucei CMP (fast strain); assay: Trypanocidal activity in vivo in T. brucei-infected mice; details: T. brucei-infected Swiss mice
Protocol: Animals: Swiss mice (female 18-20 g, Janvier, Le Genest St Isle, France) are randomly allocated to groups of 6 animals each. Drinking water and food are available ad libitum throughout the experiment (except when the treatment is given by oral route; in this condition, the treatment is given after 12 h of animal fasting).
Parasite: Trypanosoma brucei brucei CMP (fast strain) is maintained in the laboratory by mechanical intraperitoneal sub-passage every three days in Swiss mice. The infection inoculum is prepared by taking blood collected from a clinically ill donor mouse and diluted in pH 7.2 PBS to obtain an infection inoculum of about 10^5 trypanosomes/ml suspension. Mice are infected by intraperitoneal injection of 0.1 ml of parasite suspension (=10^4 parasites).
Test substances: The reference compound is melarsoprol.
Test compounds are analytically pure compounds.
Formulations: The compounds are formulated in 100% DMSO. Clear solutions should be obtained. The stock solution is divided in aliquots and stored at −20° C. until use. Aliquots are thawed immediately before treatment. The reference compound melarsoprol is formulated in PBS and stored at −20° C.
Treatment: The first dosing with the test compounds was given approx. 3 hours after artificial infection. • Melarsoprol (Arsobal®): 6 infected mice intraperitoneally treated with 1 mg/kg×4 consecutive days. • Test compounds: 6 infected mice per AMTD×1-5 consecutive days. • Controls: 10 infected mice receiving vehicle only (0.1-0.2 ml) Evaluation Parameters:
Parasitemia was checked microscopically from blood collected at the tail of the mice 2 days after the treatment, and every two days until 30 days post-treatment in case of survival. The trypanocidal activity was evaluated by the mean survival time of treated mice for each dose comparatively to survival time of mice treated with the vehicle alone. Treatment was considered to be successful when the mean survival time exceeds 30 days and the mice remains aparasitemic. […] Cure rate are expressed as percentages.

[7] = test system: Leishmania infantum MHOM/MA (BE)/67 strain; assay: In vitro Leishmania infantum assay, intracellular amastigotes in primary peritoneal mouse macrophages; format: cell-based; details: L. infantum amastigotes in mouse macrophages, 5 d incubation, reference drug, read-out: IC50 (50% inhibitory concentration), reduction in parasite burden
Protocol: as §1

[8] = test system: procyclic forms of T. b. brucei; details: cited from earlier work
[9] = test system: bloodstream forms of T. brucei; details: cited from earlier work
[10] = test system: promastigotes of L. major; details: cited from earlier work
[11] = one single dose at 50 mg/kg i.p.

SMILES: O=C(/C=C/c1ccc(C(F)(F)F)cc1)/C=C/c1ccc(C(F)(F)F)cc1 [NW267, (1E,4E)-1,5-Bis(4-trifluoromethyl-phenyl)-penta-1,4-dien-3-one]
toxicity against mammalian (MRC-5) cells (in words) (MRC-5SV2 cells): without any toxicity
trypanocidal activity against T. brucei (in words) [1]: excellent antitrypanosomal activities
toxicity against mouse macrophages (in words) [2]: without any toxicity
trypanocidal activity against T. cruzi (in words) [3]: excellent antitrypanosomal activities

SMILES: CC1CS(=O)(=O)CCN1/N=C/c1ccc([N+](=O)[O-])o1 (centres unmarked) [Nifurtimox, reference compound]
IC50 ([3]; Trypanosoma cruzi, MRC5, 168 h, T. cruzi Tulahuen CL on MRC-5 cells, 7 d incubation, reference drug, read-out: IC50, reduction in parasite burdens): 0.845 ± 0.2 µM

SMILES: Nc1nc(N)nc(Nc2ccc([As]3SCC(CO)S3)cc2)n1 (centres unmarked) [melarsoprol]
failure rate after treatment ([4]; late stage case of human African trypanosomiasis): under 7%
overall mortality due to the drug itself ([4]; therapy of late-stage encephalitic disease, patients): more than 5%

light sensitivity (in words) [5]: Light-sensitive
SMILES: O=C(/C=C/c1ccc(O)c(OC(F)(F)F)c1)/C=C/c1ccc(O)c(OC(F)(F)F)c1 [NW317, (1E,4E)-1,5-Bis(4-hydroxy-3-(trifluoromethoxy)phenyl)penta-1,4-dien-3-one]

SMILES: CN1C(c2ccncc2)CC(=O)CC1c1ccncc1 (centres unmarked) [BJ591, 1-Methyl-2,6-di(pyridine-4-yl)piperidin-4-one]
toxicity against mammalian (MRC-5) cells (in words) (MRC-5SV2 cells): much less cytotoxicity
toxicity against mouse macrophages (in words) [2]: much less cytotoxicity

SMILES: O=C1C[C@H](c2ccncc2)S[C@@H](c2ccncc2)C1 (relative stereo) [TG003A23, trans-2,6-di(pyridin-4-yl)dihydro-2H-thiopyran-4(3H)-one]
toxicity against mammalian (MRC-5) cells (in words) (MRC-5SV2 cells): much less cytotoxicity
toxicity against mouse macrophages (in words) [2]: much less cytotoxicity

SMILES: O=C(/C=C/c1ccncc1)/C=C/c1ccncc1 [NW319, (1E,4E)-1,5-Di(pyridin-4-yl)penta-1,4-dien-3-one Dihydrochloride]
toxicity against mammalian (MRC-5) cells (in words) (MRC-5SV2 cells): high cytotoxicity
trypanocidal activity against T. brucei (in words) [1]: excellent trypanocidal activity
trypanocidal activity against T. cruzi (in words) [3]: excellent trypanocidal activity
parasitemia [6, 11]: 0%
parasitemia ([6]; two doses over a two days-period, 12.5 mg/kg i.p.): 0%

SMILES: O=C(/C=C/c1cccnc1)/C=C/c1cccnc1 [NW321, (1E,4E)-1,5-Di(pyridin-3-yl)penta-1,4-dien-3-one Dihydrochloride]
toxicity against mammalian (MRC-5) cells (in words) (MRC-5SV2 cells): high cytotoxicity
trypanocidal activity against T. brucei (in words) [1]: excellent trypanocidal activity
trypanocidal activity against T. cruzi (in words) [3]: excellent trypanocidal activity
parasitemia [6, 11]: 0%

SMILES: N#Cc1ccc(/C=C/C(=O)/C=C/c2ccc(C#N)cc2)cc1 [NW307.2, (1E,4E)-1,5-Bis(4-cyanophenyl)penta-1,4-dien-3-one]
toxicity against mammalian (MRC-5) cells (in words) (MRC-5SV2 cells): without any cytotoxicity
trypanocidal activity against T. brucei (in words) [1]: excellent activity
trypanocidal activity against T. cruzi (in words) [3]: excellent activity

SMILES: CN1C(c2ccccc2)CC(=O)CC1c1ccccc1 (stereo not drawn) [NW249.1, meso-1-Methyl-2,6-diphenyl-piperidin-4-one]
toxicity against mammalian (MRC-5) cells (in words) (MRC-5SV2 cells): low toxicity
trypanocidal activity against T. brucei (in words) [1]: high trypanocidal activity
toxicity against mouse macrophages (in words) [2]: without any toxicity

SMILES: O=C(/C=C/c1ccc(OC(F)(F)F)cc1)/C=C/c1ccc(OC(F)(F)F)cc1 [NW254, (1E,4E)-1,5-Bis(4-trifluoromethoxy-phenyl)-penta-1,4-dien-3-one]
toxicity against mammalian (MRC-5) cells (in words) (MRC-5SV2 cells): without any toxicity
trypanocidal activity against T. brucei (in words) [1]: excellent antitrypanosomal activities
toxicity against mouse macrophages (in words) [2]: without any toxicity
trypanocidal activity against T. cruzi (in words) [3]: excellent antitrypanosomal activities

SMILES: COc1ccc(O)c(/C=C/C(=O)/C=C/c2cc(OC)ccc2O)c1 [NW327.2, (1E,4E)-1,5-Bis(2-hydroxy-5-methoxyphenyl)penta-1,4-dien-3-one]
parasitemia [6, 11]: 0%
parasitemia ([6]; two doses over a two days-period, 25 mg/kg i.p.): 0%

decomposition ([5]; HPLC analysis, after 5 days): 60%
SMILES: COc1cc(Br)c(O)c(/C=C/C(=O)/C=C/c2cc(OC)cc(Br)c2O)c1 [NW326.4, (1E,4E)-1,5-Bis(3-bromo-2-hydroxy-5-methoxyphenyl)penta-1,4-dien-3-one]

SMILES: O=C(O)[C@@H]1[O][Sb](=[O])([O][Sb]2(=[O])[O][C@H]([C@H](O)CO)[C@H](O)[C@H](C(=O)O)[O]2)[O][C@H]([C@H](O)CO)[C@@H]1O.[Na+].[Na+].[Na+] (some centres unmarked) [Pentostam]
IC50 [7]: 6.8 ± 0.9 µM

SMILES: COc1cc(/C=C/C(=O)CC(=O)/C=C/c2ccc(O)c(OC)c2)ccc1O [Curcumin]
LD50 [8]: 46.5 ± 4.9 µM
cytotoxicity against bloodstream forms of T. brucei relative to procyclic forms [9]: 10 times
LD50 [10]: 37.6 ± 3.5 µM

IC50 ([7]; Leishmania infantum, Macrophage, 120 h): 5.2 ± 0.8 µM
SMILES: CCCCCCCCCCCCCCCCOP(=O)([O-])OCC[N+](C)(C)C [miltefosine]

SMILES: COc1cc(/C=C/C(=O)/C=C/c2ccc(O)c(OC)c2)ccc1O [NW300, (1E,4E)-1,5-Bis(4-hydroxy-3-methoxyphenyl)penta-1,4-dien-3-one]
toxicity against mammalian (MRC-5) cells (in words) (MRC-5SV2 cells): very high cytotoxicity
trypanocidal activity against T. brucei (in words) [1]: excellent antitrypanosomal activity

SMILES: O=C(/C=C/c1ccccn1)/C=C/c1ccccn1 [BJ621]
toxicity against mammalian (MRC-5) cells (in words) (MRC-5SV2 cells): high cytotoxicity
trypanocidal activity against T. brucei (in words) [1]: excellent trypanocidal activity
trypanocidal activity against T. cruzi (in words) [3]: excellent trypanocidal activity
